US7244557B2, “Method of screening modulators of Nod1 signaling” (Regents of the University of Michigan, priority 2003, dated 2007)

Assays:
Format in all cases: cell-based
[1] = target: T1, NOD1 (Homo sapiens, UniProt Q9Y239); test: NF-κB-dependent luciferase reporter assay, HEK293T cells expressing NOD1
T1 construct: expressed in transfected cells; host or cells: HEK293T
T1 sequence (Q9Y239 1-953): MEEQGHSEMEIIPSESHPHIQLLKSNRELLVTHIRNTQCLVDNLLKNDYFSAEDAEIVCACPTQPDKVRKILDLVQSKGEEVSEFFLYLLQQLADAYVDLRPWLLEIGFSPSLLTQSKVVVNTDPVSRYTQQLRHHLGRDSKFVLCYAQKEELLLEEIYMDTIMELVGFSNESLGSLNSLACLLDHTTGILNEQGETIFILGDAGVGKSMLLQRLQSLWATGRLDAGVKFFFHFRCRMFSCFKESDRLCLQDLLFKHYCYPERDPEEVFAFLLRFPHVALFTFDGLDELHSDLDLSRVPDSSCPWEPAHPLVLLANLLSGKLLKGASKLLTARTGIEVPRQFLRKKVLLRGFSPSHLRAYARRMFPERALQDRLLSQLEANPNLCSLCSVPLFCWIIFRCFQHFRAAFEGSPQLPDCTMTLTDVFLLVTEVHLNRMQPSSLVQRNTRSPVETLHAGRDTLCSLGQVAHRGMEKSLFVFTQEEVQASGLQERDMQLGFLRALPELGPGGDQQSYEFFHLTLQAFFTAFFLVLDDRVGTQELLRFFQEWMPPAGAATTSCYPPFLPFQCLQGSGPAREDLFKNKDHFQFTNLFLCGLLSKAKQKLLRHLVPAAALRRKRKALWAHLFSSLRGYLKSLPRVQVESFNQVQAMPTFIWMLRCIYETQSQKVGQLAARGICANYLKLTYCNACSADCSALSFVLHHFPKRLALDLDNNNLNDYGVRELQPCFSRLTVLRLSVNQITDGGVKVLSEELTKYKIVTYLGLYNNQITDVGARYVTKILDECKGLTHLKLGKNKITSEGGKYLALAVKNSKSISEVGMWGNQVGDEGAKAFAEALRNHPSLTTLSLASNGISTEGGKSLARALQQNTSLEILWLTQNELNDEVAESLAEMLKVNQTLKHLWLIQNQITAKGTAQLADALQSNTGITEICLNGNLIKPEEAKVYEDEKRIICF
Description: Reagents. LPS from S. typhimurium, intact and alkaline-detoxified LPS from E. coli O55:B5 as well as purified lipid A preparations of E. coli F583, MDP, DAP and dsRNA were obtained from Sigma-Aldrich (St. Louis, Mo.). PGN from S. aureus was from Fluka-Chemie (Buchs, Germany). Palmitoyl-Cys ((RS)-2,3-di(palmitoyloxy)-propyl)-Ala-Gly) (sBLP), was obtained from Bachem (Torrance, Calif.). The tetrameric form of the disaccharide dipeptide was described previously (Inohara et al., J. Biol. Chem. 278:5509 [2003]). iE-DAP and iQ-DAP, M3P and M4P were synthesized as described (Kitaura et al., J. Med. Chem. 25:335 [1982]) with small modification. Purification of PGN from B. subtilis 168 and C. flaccumfaciens with hydrolases, Cellosyl or recombinant AtlE (amidase domain) and the fractionation and purification of reduced B. subtilis PGN digested with Cellosyl were performed as previously described (Heilman et al., Mol. Microbiol. 24:1013 [1997]; Atrih et al., J. Bact. 181:3956 [1999]). Removal of proteins and reduction of LPS fraction. E. coli O55:B5 LPS (Sigma) was treated with proteinase K at 37° C. for 12 hr to digest contaminating proteins. To eliminate lipoproteins, LPS was subjected to modified phenol extraction with deoxycholate-containing phenol as described (Hirschfeld et al., J. Immunol. 165:618 [2000]). For reduction of carboxyl group in the LPS, the LPS was treated with 1-ethyl-3-(3-dimethylaminopropyl) carbodiimide and then reduced with NaBH4 as described (Taylor et al., Biochemistry 11:1383 [1972]). Preparation of E. coli extract. E. coli K-12 mutants were all based on the SØ864 genetic background (lacZ trp upp relA rpsL) (Neuhard and Thomassen, J. Bacteriol. 126:999). SØ874 carries a large chromosomal deletion removing the gene clusters for the biosynthesis of CA capsule and O-antigen. CLM5 is a derivative of SØ874 with a transposon insertion in the wecC gene that blocks the synthesis of ECA (Marolda et al., J. Bacteriol. 177:5539[1995]). FAM5 is a derivative of SØ874 carrying a deletion that eliminates the incorporation of heptose in the LPS core. Extracts were prepared from all of these E. coli K-12 strains and also from another E. coli K-12 strain, LCD27 YA21-6 (Obtained from Dr. Arisaka, Tokyo Institute of Technology). Bacteria were cultured overnight at 37° C. in Luria broth, killed by treatment with acetone followed by vacuum drying and finally resuspended in 10 mM HEPES. The extract was treated with 1M NaOH at 55° C. for 12 hr and neutralized with 1M HEPES (pH 7.4). The soluble fraction after centrifugation and filtration with 0.22 μm filter was applied to SUPEROSE 12 gel filtration column chromatography. Partial purification of NOD1-stimulatory molecules from E. coli and composition analyses. The amino acid composition of E. coli O55:B5 LPS was determined using AccQ·Tag amino acid analysis system (Waters, Milford, Mass.) after hydrolysis at 110° C. for 24 hr. For carbohydrate analysis, E coli K-12 YA21-6 (Ref 26) cultured overnight at 37° C. in L-broth were washed with TBS twice and incubated with TBS containing 1 mglml DNase I, RNase I and lysozyme for 37° C. for 2 hr. Acetone was added to the extracts at 50% final concentration and the insoluble fractions were washed with an excess of 75% and 100% acetone. After vacuum drying, the acetone extract was solublized with 1 M NaOH and incubated at 60° C. for 24 hr. The pH was adjusted to pH 5.0 with acetic acid and the soluble fraction was passed through SUPEROSE gel filtration column. SUPEROSE fractions with NOD1-stimulatory activity were diluted with 10 mM Tris-HCl (pH 8.8) and subjected to UnoQ column chromatography. The fractions were eluted with a linear gradient of 0–300 mM NaCl. The positive fractions were dialyzed against water and dried under vacuum. The monosaccharide composition of the fractions after TFA/methanol degradation was determined as previously described (Forsberg et al., J. Biol. Chem. 273:2747[1998]). Transfection and NF-κB Activation Assay. […]

[2] = target: T2, NOD2 (Homo sapiens, UniProt Q9HC29); test: NF-κB-dependent luciferase reporter assay, HEK293T cells expressing NOD2
T2 construct: expressed in transfected cells; host or cells: HEK293T
T2 sequence (Q9HC29 whole entry): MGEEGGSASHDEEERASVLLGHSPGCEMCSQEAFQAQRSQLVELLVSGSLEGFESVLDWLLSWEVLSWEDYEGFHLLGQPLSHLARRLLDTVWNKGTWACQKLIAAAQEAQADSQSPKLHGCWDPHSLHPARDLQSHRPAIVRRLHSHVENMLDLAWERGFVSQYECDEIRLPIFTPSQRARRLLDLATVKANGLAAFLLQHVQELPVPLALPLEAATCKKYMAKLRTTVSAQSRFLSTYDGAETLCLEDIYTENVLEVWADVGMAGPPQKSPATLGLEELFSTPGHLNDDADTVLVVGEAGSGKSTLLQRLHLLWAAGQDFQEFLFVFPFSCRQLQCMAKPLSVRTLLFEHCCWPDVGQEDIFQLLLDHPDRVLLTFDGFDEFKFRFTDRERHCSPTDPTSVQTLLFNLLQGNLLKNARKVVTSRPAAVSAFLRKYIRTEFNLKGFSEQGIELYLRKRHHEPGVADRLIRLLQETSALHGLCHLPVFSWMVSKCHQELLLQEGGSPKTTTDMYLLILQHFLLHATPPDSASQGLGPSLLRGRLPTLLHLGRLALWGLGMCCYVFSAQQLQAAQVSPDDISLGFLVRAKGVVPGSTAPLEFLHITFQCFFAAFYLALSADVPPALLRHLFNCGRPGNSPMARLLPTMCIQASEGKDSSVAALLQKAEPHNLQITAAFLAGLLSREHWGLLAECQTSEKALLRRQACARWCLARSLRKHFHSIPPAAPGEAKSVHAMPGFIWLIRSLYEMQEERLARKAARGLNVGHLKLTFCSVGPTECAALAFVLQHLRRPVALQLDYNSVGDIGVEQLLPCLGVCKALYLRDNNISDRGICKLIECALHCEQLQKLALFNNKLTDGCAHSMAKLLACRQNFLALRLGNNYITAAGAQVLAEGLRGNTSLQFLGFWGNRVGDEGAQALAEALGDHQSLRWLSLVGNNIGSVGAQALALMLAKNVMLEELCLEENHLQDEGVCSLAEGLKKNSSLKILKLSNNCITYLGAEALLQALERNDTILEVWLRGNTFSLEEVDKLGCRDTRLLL
Description: (§1) Reagents. LPS from S. typhimurium, intact and alkaline-detoxified LPS from E. coli O55:B5 as well as purified lipid A preparations of E. coli F583, MDP, DAP and dsRNA were obtained from Sigma-Aldrich (St. Louis, Mo.). PGN from S. aureus was from Fluka-Chemie (Buchs, Germany). Palmitoyl-Cys ((RS)-2,3-di(palmitoyloxy)-propyl)-Ala-Gly) (sBLP), was obtained from Bachem (Torrance, Calif.). The tetrameric form of the disaccharide dipeptide was described previously (Inohara et al., J. Biol. Chem. 278:5509 [2003]). iE-DAP and iQ-DAP, M3P and M4P were synthesized as described (Kitaura et al., J. Med. Chem. 25:335 [1982]) with small modification. Purification of PGN from B. subtilis 168 and C. flaccumfaciens with hydrolases, Cellosyl or recombinant AtlE (amidase domain) and the fractionation and purification of reduced B. subtilis PGN digested with Cellosyl were performed as previously described (Heilman et al., Mol. Microbiol. 24:1013 [1997]; Atrih et al., J. Bact. 181:3956 [1999]). Removal of proteins and reduction of LPS fraction. […] The amino acid composition of E. coli O55:B5 LPS was determined using AccQ·Tag amino acid analysis system (Waters, Milford, Mass.) after hydrolysis at 110° C. for 24 hr. […] The monosaccharide composition of the fractions after TFA/methanol degradation was determined as previously described (Forsberg et al., J. Biol. Chem. 273:2747[1998]). […]

[3] = target: T3, TLR4/MD-2 (Homo sapiens, UniProt O00206+Q9Y6Y9); test: NF-κB-dependent luciferase reporter assay, HEK293T cells expressing TLR4 with co-factor MD-2
T3 construct: expressed in transfected cells; host or cells: HEK293T
T3 sequence (O00206 24-839, species assumed): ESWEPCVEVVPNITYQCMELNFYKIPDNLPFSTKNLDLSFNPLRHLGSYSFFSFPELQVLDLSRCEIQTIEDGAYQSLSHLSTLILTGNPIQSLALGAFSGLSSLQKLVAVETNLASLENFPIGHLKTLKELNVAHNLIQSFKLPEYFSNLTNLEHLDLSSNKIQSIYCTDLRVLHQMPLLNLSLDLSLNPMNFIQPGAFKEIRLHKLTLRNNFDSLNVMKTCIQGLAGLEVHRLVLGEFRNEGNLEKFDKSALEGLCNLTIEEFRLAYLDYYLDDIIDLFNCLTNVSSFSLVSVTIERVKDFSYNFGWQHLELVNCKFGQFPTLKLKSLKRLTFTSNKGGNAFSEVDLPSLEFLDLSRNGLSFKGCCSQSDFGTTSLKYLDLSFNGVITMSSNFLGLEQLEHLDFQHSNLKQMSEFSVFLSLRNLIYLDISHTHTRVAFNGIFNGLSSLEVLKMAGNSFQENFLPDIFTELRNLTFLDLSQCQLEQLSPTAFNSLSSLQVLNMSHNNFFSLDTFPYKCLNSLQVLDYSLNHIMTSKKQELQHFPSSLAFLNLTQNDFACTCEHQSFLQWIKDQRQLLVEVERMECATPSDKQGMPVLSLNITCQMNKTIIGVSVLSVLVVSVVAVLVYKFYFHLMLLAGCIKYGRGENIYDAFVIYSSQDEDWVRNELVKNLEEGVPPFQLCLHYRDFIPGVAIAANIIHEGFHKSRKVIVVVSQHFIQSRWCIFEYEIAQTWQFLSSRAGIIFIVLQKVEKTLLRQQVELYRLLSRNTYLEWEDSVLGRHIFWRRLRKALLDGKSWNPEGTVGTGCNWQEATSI
T3 sequence (Q9Y6Y9 19-160, species assumed): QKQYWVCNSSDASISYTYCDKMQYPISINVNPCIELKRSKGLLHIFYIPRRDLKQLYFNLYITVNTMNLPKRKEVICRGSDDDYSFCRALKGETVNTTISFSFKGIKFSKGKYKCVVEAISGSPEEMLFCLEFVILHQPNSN
Description: as §1

Row | Compound | NOD1-dependent NF-κB activation (NOD1 stimulation) [1] | NOD2-dependent NF-κB activation [2] | TLR4/MD-2-dependent NF-κB activation [3]
1 | MurNAc-L-Ala-γ-D-Gln-L-Lys-D-Ala [M4P] | failed to stimulate NOD1 |  | 
2 | N-acetylglucosamine(GlcNAc)-N-acetyl-Muramicitol-L-Ala-γ-D-Glu-meso-DAP [GM3p] | stimulated NOD1 in a dose-dependent manner |  | 
3 | N[C@H](CCC[C@H](N)C(=O)O)C(=O)O [DAP, diaminopimelic acid] | unable to stimulate NOD1 |  | 
4 | MurNAc-L-Ala-γ-D-Gln-L-Lys [M3P] | failed to stimulate NOD1 |  | 
5 | lipid A | not NOD1 and NOD2 | not NOD1 and NOD2 | responded
